Test results reported in patent US12503452B2 (Curza Global, LLC, priority 2019, dated 2025).
Where a name gives a salt, the structure may show the parent alone. Read-outs that look alike come from different tables or passages of the source.

Assays:
P. aeruginosa (Pa) = test: Broth microdilution minimum inhibitory concentration (MIC); type: cell-based; settings: for MIC: Pseudomonas aeruginosa, read-out: Pa MIC + bicarb
Summary of the method: (§1)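 Inoculum of 5×10^4 CFU/well, prepared from colonies grown to 0.5 McFarland (A600) at 35±2 °C, is exposed to two-fold serial dilutions in CAMHB-based media (± bicarbonate or human serum). Modified CLSI microdilution, triplicate.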

S. aureus (Sa) = test: as above; type: cell-based; settings: for MIC: Staphylococcus aureus, read-out: Sa + bicarb MIC
Summary of the method: as §1

E. faecalis (Ef) = test: as above; type: cell-based; settings: for MIC: Enterococcus faecalis, read-out: Ef + bicarb MIC
Summary of the method: as §1

A. baumannii (Ab) = test: as above; type: cell-based; settings: for MIC: Acinetobacter baumannii, read-out: Ab + bicarb MIC
Summary of the method: as §1

E. coli (Ec) = test: as above; type: cell-based; settings: for MIC: Escherichia coli, read-out: E. coli + bicarb MIC
Summary of the method: as §1

[1] = tested on: E. coli S30 extract (bacterial protein synthesis); test: E. coli S30 extract coupled transcription-translation luciferase assay (inhibition of bacterial protein synthesis); type: biochemical; settings: read-out: S30 IC50 (μM/% inhib.)
Summary of the method: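 Luminescent read-out of luciferase made from pBESTluc DNA by E. coli S30 extract after 1 h at 37 °C with compound in an 8-point 2-fold series. Background came from no-DNA reactions. Percent inhibition was calculated against water-only controls.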

[2] = target: Rabbit Reticulocyte Lysate (eukaryotic protein synthesis); test: Rabbit reticulocyte lysate luciferase assay (inhibition of eukaryotic protein synthesis); type: biochemical; settings: read-out: Rabbit reticulocyte IC50 (μM/% inhib.)
Summary of the method: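 Compounds were tested in 8-point 2-fold dilution series for blocking luciferase synthesis in nuclease-treated rabbit reticulocyte lysate (30° C., 90 minutes). Luminescence read-out, corrected by no-RNA background, was expressed as % inhibition against water-only reactions.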

[3] = class by IC50 or % inhibition @ 1 μM
[4] = P. aeruginosa, growth medium with sodium bicarbonate
[5] = S. aureus, growth medium with sodium bicarbonate
[6] = E. faecalis, growth medium with sodium bicarbonate
[7] = A. baumannii, growth medium with sodium bicarbonate
[8] = E. coli, growth medium with sodium bicarbonate

Row | SMILES | MIC (P. aeruginosa (Pa)) | MIC (S. aureus (Sa)) | MIC (E. faecalis (Ef)) | MIC (A. baumannii (Ab)) | MIC (E. coli (Ec)) | IC50 [1, 3] | IC50 [2, 3] | IC50 ([1]; % inhibition @ 1 μM) | IC50 ([2]; % inhibition @ 1 μM) | MIC (P. aeruginosa (Pa); [4]) | MIC (S. aureus (Sa); [5]) | MIC (E. faecalis (Ef); [6]) | MIC (A. baumannii (Ab); [7]) | MIC (E. coli (Ec); [8]) | Ab + bicarb MIC (A. baumannii (Ab); [7]) | Pa MIC + bicarb (P. aeruginosa (Pa); [4]) | Sa + bicarb MIC (S. aureus (Sa); [5]) | Ef + bicarb MIC (E. faecalis (Ef); [6]) | E. coli + bicarb MIC (E. coli (Ec); [8])
1 | CC(C)(N)C(=O)N1CCN(C(=O)Nc2ccn(-c3ccc(CN4CC[C@H](N)[C@@H](F)C4)cc3)c(=O)n2)CC1 [Compound 344, hydrochloride salt] | > 32 µg/mL | > 32 µg/mL | > 32 µg/mL | > 32 µg/mL | > 32 µg/mL | > 1 µM | > 1 µM |  |  |  |  |  |  |  |  |  |  |  | 
2 | CC(C)(N)C(=O)N1CCN(C(=O)Nc2ccn(-c3ccc(CCNCC4CNC4)cc3)c(=O)n2)CC1 [Compound 345, hydrochloride salt] | > 32 µg/mL | > 32 µg/mL | > 32 µg/mL | > 32 µg/mL | > 32 µg/mL | 0.5 to 1 µM | > 1 µM |  |  |  |  |  |  |  |  |  |  |  | 
3 | CC(Cc1ccc(-n2ccc(NC(=O)N3CCN(C(=O)C(C)(C)N)CC3)nc2=O)cc1)N1CC(CCN)C1 (stereo not drawn) [Compound 347, hydrochloride salt] | > 32 µg/mL | 8 to 32 µg/mL | > 32 µg/mL | > 32 µg/mL | < 8 µg/mL | 0.5 to 1 µM | > 1 µM |  |  |  |  |  |  |  |  |  |  |  | 
4 | CC(C)(N)C(=O)N1CCN(C(=O)Nc2ccn(-c3ccc(CN(C4CC4)[C@H]4CC[C@H](N)CC4)cc3)c(=O)n2)CC1 [Compound 348, hydrochloride salt] | > 32 µg/mL | 8 to 32 µg/mL | > 32 µg/mL | > 32 µg/mL | < 8 µg/mL |  |  | < 0.5 µM | > 1 µM |  |  |  |  |  |  |  |  |  | 
5 | CC(C)(N)C(=O)N1CCN(C(=O)Nc2ccn(-c3ccc(C4CO[C@@H](CN)CN4)cc3)c(=O)n2)CC1 (stereo partly drawn) [Compound 352, hydrochloride salt] | > 32 µg/mL | > 32 µg/mL | > 32 µg/mL | > 32 µg/mL | 8 to 32 µg/mL |  |  | < 0.5 µM | > 1 µM |  |  |  |  |  |  |  |  |  | 
6 | CC(C)(N)C(=O)N1CCN(C(=O)Nc2ccn(-c3cc(F)c(CN[C@H]4CC[C@H](N)CC4)c(F)c3)c(=O)n2)CC1 [Compound 353, hydrochloride salt] | > 32 µg/mL | 8 to 32 µg/mL | > 32 µg/mL | > 32 µg/mL | < 8 µg/mL |  |  | < 0.5 µM | > 1 µM |  |  |  |  |  |  |  |  |  | 
7 | CCN(Cc1ccc(-n2ccc(NC(=O)N3CCN(C(=O)C(C)(C)N)CC3)nc2=O)cc1F)[C@H]1CC[C@H](N)CC1 [Compound 355] | > 32 µg/mL | < 8 µg/mL | < 8 µg/mL | > 32 µg/mL | < 8 µg/mL |  |  | < 0.5 µM | > 1 µM |  |  |  |  |  |  |  |  |  | 
8 | CC(C)N(Cc1ccc(-n2ccc(NC(=O)N3CCN(C(=O)C(C)(C)N)CC3)nc2=O)cc1)C1CCC(N)CC1 (stereo not drawn) [Compound 356] |  |  |  |  |  |  |  | > 1 µM | > 1 µM | > 32 µg/mL | > 32 µg/mL | > 32 µg/mL | > 32 µg/mL | > 32 µg/mL |  |  |  |  | 
9 | CCN(Cc1ccc(-n2ccc(NC(=O)N3CCN(C(=O)[C@H](C)N)CC3)nc2=O)cc1)C1CCC(N)CC1 (stereo partly drawn) [Compound 357] |  |  |  |  |  |  |  | < 0.5 µM | > 1 µM | > 32 µg/mL | < 8 µg/mL | 8 to 32 µg/mL | > 32 µg/mL | < 8 µg/mL |  |  |  |  | 
10 | CCN(Cc1ccc(-n2ccc(NC(=O)N3CCN(C(=O)[C@@H](C)N)CC3)nc2=O)cc1)C1CCC(N)CC1 (stereo partly drawn) [Compound 358] |  |  |  |  |  |  |  | 0.5 to 1 µM | > 1 µM | > 32 µg/mL | < 8 µg/mL | 8 to 32 µg/mL | > 32 µg/mL | < 8 µg/mL |  |  |  |  | 
11 | CCN(Cc1ccc(-n2ccc(NC(=O)N3CCN(C(=O)[C@@H](C)NC(=O)[C@@H](C)N)CC3)nc2=O)cc1)C1CCC(N)CC1 (stereo partly drawn) [Compound 359] |  |  |  |  |  |  |  | > 1 µM | > 1 µM | > 32 µg/mL | 8 to 32 µg/mL | > 32 µg/mL | > 32 µg/mL | > 32 µg/mL |  |  |  |  | 
12 | CC(C)(N)C(=O)N1CCN(C(=O)Nc2ccn(-c3ccc(CN4CCCC(N)CC4)cc3)c(=O)n2)CC1 (stereo not drawn) [Compound 365, hydrochloride salt] | > 32 µg/mL | < 8 µg/mL | < 8 µg/mL | > 32 µg/mL | < 8 µg/mL |  |  | < 0.5 µM | > 1 µM |  |  |  |  |  |  |  |  |  | 
13 | CC(C)(N)C(=O)N1CCN(C(=O)Nc2ccn(-c3ccc(CN4CCC(C5CNC5)CC4)cc3)c(=O)n2)CC1 [Compound 370, hydrochloride salt] | > 32 µg/mL | < 8 µg/mL | < 8 µg/mL | > 32 µg/mL | < 8 µg/mL |  |  | < 0.5 µM | > 1 µM |  |  |  |  |  |  |  |  |  | 
14 | CC(C)(N)C(=O)N1CCN(C(=O)Nc2ccn(-c3ccc(CCN4CC(C5CCNCC5)C4)cc3)c(=O)n2)CC1 [Compound 372] |  |  |  |  |  |  |  | > 1 µM | > 1 µM | > 32 µg/mL | < 8 µg/mL | > 32 µg/mL | > 32 µg/mL | < 8 µg/mL |  |  |  |  | 
15 | CC(C)(N)C(=O)N1CCN(C(=O)Nc2ccn(-c3ccc(CC4(N5CCC(N)CC5)CC4)cc3)c(=O)n2)CC1 [Compound 373] |  |  |  |  |  |  |  | > 1 µM | > 1 µM | > 32 µg/mL | < 8 µg/mL | 8 to 32 µg/mL | > 32 µg/mL | < 8 µg/mL |  |  |  |  | 
16 | CC(C)(N)C(=O)N1CCN(C(=O)Nc2ccn(-c3ccc(CNCC4CNC4)cc3)c(=O)n2)CC1 [Compound 374] |  |  |  |  |  |  |  | < 0.5 µM | > 1 µM | > 32 µg/mL | 8 to 32 µg/mL | 8 to 32 µg/mL |  | < 8 µg/mL | + (An MIC value (μg/mL) that is 32 μg/mL or greater) |  |  |  | 
17 | CC(C)(N)C(=O)N1CCN(C(=O)Nc2ccn(-c3ccc(CN4CC(C5CCNCC5)C4)cc3)c(=O)n2)CC1 [Compound 377] |  |  |  |  |  |  |  | < 0.5 µM | > 1 µM | > 32 µg/mL | < 8 µg/mL | > 32 µg/mL | > 32 µg/mL | < 8 µg/mL |  |  |  |  | 
18 | CC(Cc1ccc(-n2ccc(NC(=O)N3CCN(C(=O)C(C)(C)N)CC3)nc2=O)cc1)N1CC[C@H](CN)C1 (stereo partly drawn) [Compound 378] |  |  |  |  |  |  |  | < 0.5 µM | > 1 µM |  |  |  |  |  | + (An MIC value (μg/mL) that is 32 μg/mL or greater) | + (An MIC value (μg/mL) that is 32 μg/mL or greater) | +++ (An MIC value (μg/mL) that is less than 8 μg/mL) | ++ (An MIC value (μg/mL) that is 8 μg/mL or greater and less than 32 μg/mL) | +++ (An MIC value (μg/mL) that is less than 8 μg/mL)
19 | CC(Cc1ccc(-n2ccc(NC(=O)N3CCN(C(=O)C(C)(C)N)CC3)nc2=O)cc1)N1CCC(C2CNC2)CC1 (stereo not drawn) [Compound 379] |  |  |  |  |  |  |  | > 1 µM | > 1 µM | > 32 µg/mL | < 8 µg/mL | > 32 µg/mL | > 32 µg/mL | < 8 µg/mL |  |  |  |  | 
20 | CC(C)(N)C(=O)N1CCN(C(=O)Nc2ccn(-c3ccc(CN4CC(N5CC(N)C5)C4)cc3)c(=O)n2)CC1 [Compound 380] |  |  |  |  |  |  |  | < 0.5 µM | > 1 µM | > 32 µg/mL | < 8 µg/mL | 8 to 32 µg/mL | > 32 µg/mL | < 8 µg/mL |  |  |  |  | 
21 | CC(Cc1ccc(-n2ccc(NC(=O)N3CCN(C(=O)C(C)(C)N)CC3)nc2=O)cc1)N1CC[C@@H](CN)C1 (stereo partly drawn) [Compound 382] |  |  |  |  |  |  |  | < 0.5 µM | > 1 µM | 8 to 32 µg/mL | < 8 µg/mL | < 8 µg/mL | > 32 µg/mL | < 8 µg/mL |  |  |  |  | 
